Values belong to the sequence of their own block, whether it stands above or below them.
Assays:
[1] = Oxidoreductase activity of the immunogenic peptides, fluorescent assay (Tomazzolli et al.); type: biochemical; details: for oxidoreductase activity: reduction of self-quenched FITC peptides, mean of duplicates, read in RFU (FIGS. 1A-1E); for time at which oxidoreductase activity reached a plateau: FIG. 1A
Source text: The peptides of the invention comprise an MHC class II T-cell epitope or NKT cell epitope of AQP4 with a potential to trigger an immune reaction, and a modified oxidoreductase motif. The reducing activity of the motif sequence in the peptide can be assayed for its ability to reduce a sulfhydryl group such as in the insulin solubility assay wherein the solubility of insulin is altered upon reduction, or with a fluorescence-labelled substrate such as insulin. An example of such assay uses a fluorescent peptide and is described in Tomazzolli et al. (2006) Anal. Biochem. 350, 105-112. Two peptides with a FITC label become self-quenching when they covalently attached to each other via a disulfide bridge. Upon reduction by a peptide in accordance with the present invention, the reduced individual peptides become fluorescent again.
The oxidoreductase activity of the immunogenic peptides of table 1 was determined using a fluorescent assay described in Tomazzolli et al. (2006) Anal. Biochem. 350, 105-112. Two peptides with a FITC label become self-quenching when they form a covalent disulfide bond. Upon reduction by a peptide in accordance with the present invention, the reduced individual FITC labelled peptides emit fluorescence again. The activity is expressed as the mean of duplicates. The results are expressed in Relative Fluorescent Units (RFU).

[2] = target: T1, soluble HLA-DRB1*03:01 (DR3) human MHC II protein (Homo sapiens, UniProt P01903+P01911, A100K/A102G/A103R/A169T/F55Y/I96L/K41T/L162R/M171V/P40S/Q125H/Q178H/Q39Y/R42S/S66N/T106N/T262R/W38E/Y61H); assay: Soluble phase competition binding assay to MHCII with biotin-labelled control peptide; details: competition with biotin-labelled high affinity control peptide, 18h, triplicates (FIGS. 2A-2E)
T1 construct: purchased Benaroya Research Institute, Seattle, US
Protocol: To test the binding of the immunogenic peptides of table 1 to MHCII molecules, a soluble phase competition assay is performed. The increasing concentrations of the peptides compete with biotin-labelled control peptide (high affinity binder of the corresponding MHCII molecule, Eurogentec, Seraing, Belgium) for binding to the soluble HLA-DRB1*03:01 (also named DR3) human MHC II protein (purchased from the Benaroya Research Institute, Seattle, US). As binding approaches its equilibrium (18h), biotin-labelled peptide/MHC II complexes are captured, separated from unbound reagents, and quantitatively detected by time-resolved fluorescence (Eu^3+ streptavidin, Perkin Elmer, Brussels, Belgium). Since the biotinylated control peptide is responsible for the fluorescence signal (Eu^3+ streptavidin/biotin interaction), the decrease in fluorescence intensity reflects the binding of tested peptides. Data are processed and plotted to ascertain dose-dependent binding properties of the peptides. All the tests are performed in triplicates.

[3] = test system: peptide-specific CD4+ T cell lines of NMO patients; assay: Cytokine secretion in CD4+ T cell culture supernatants (LEGENDplex Human Th Panel); type: cell-based
Source text: (§1) PBMCs are isolated from blood samples of patients with NMO on Lymphoprep density gradients. CD14+ monocytes are isolated from these PBMCs by performing positive immunomagnetic separation with CD14 microbeads (Miltenyi Biotec, 130-050-201) according to the supplier recommendations. CD14+ monocytes are differentiated for six days and maturated to generate autologous dendritic cells (mDC). CD19+ B cells are isolated from the CD14− PBMCs fraction by performing positive immunomagnetic separation with CD19 microbeads (Miltenyi Biotec, 130-050-301) according to the supplier recommendations. CD19+B cells are cultured and immortalized with EBV to generate autologous lymphoblastoid cell lines (LCL). Naïve CD4+ T cells are also purified from the CD14− PBMCs fraction by performing negative immunomagnetic separation with naïve CD4+ T cell isolation kit (Miltenyi Biotec, 130-094-131) according to the supplier recommendations. Naïve CD4+ T cells are co-cultured with autologous mDC or LCL in the presence of the peptides of table 1. The CD4+ T cells are re-stimulated periodically, about every 10-12 days, to generate peptide-specific cell lines.
The ability of the peptides of table 1 to induce cytokines secretion in CD4+ T cells culture supernatants is evaluated by flow cytometry analysis after overnight co-culture at resting state with autologous mDC or LCL without (no peptide) or with the peptides of table 1. Supernatants are analyzed with the LEGENDplex Human Th Panel (13-plex) (BioLegend, 740721) according to the supplier recommendations.

[4] = test system: autologous LCL (lymphoblastoid cell lines) used as antigen presenting cells; assay: Cytolytic activity: apoptosis of peptide-loaded autologous LCL co-cultured with peptide specific CD4+ T cells (Annexin V); type: cell-based, human
Source text: as §1
The cytolytic activity of the peptide specific CD4+ T cells is evaluated by quantifying the apoptosis induced on LCL used as antigen presenting cells. Fluorescently labelled autologous LCL, loaded or not with the peptides, were overnight co-cultured at resting state with peptide specific CD4+ T cells, and LCL apoptosis was quantified by flow cytometry through Annexin V staining. Considering the apoptosis percentage of unloaded LCL, used as control, the percentage of specific apoptosis is calculated as follows: […]

[5] = test system: peptide-specific CD4+ T cell lines of NMO patients; assay: Lytic marker Granzyme B in supernatant of overnight co-culture with autologous LCL; type: cell-based, human
Source text: as §1
(§2) LCL without (no peptide) or with the peptides of table 1. The expression of the lytic marker Granzyme B is also evaluated by flow cytometry analysis in the supernatant of overnight co-culture with autologous LCL without (no peptide) or with the peptides of table 1. Supernatants are analyzed with a BioLegend kit according to the supplier recommendations.

[6] = test system: peptide-specific CD4+ T cell lines of NMO patients; assay: Flow cytometry of TCR induced surface activation marker CD154 after overnight co-culture with autologous LCL; type: cell-based, human
Source text: as §1
The evaluation of the ability of the peptides of table 1 to generate peptide specific CD4+ T cells is evaluated by flow cytometry analysis of the TCR induced surface activation marker CD154 expression after overnight co-culture at resting state with autologous
as §2

[7] = P12-specific CD4+ T cell line, patient NMO-001 (FIG. 13)
[8] = P12-specific CD4+ T cell line NMO-001 (FIG. 14)
[9] = culture supernatant of P20-CD4+ cell line from patient NMO-006 (FIG. 5)
[10] = P20-specific CD4+ T cell line, patient NMO-001, after 14 stimulations (FIG. 6)
[11] = P20-specific CD4+ T cell lines NMO-001, NMO-003, NMO-006 (FIGS. 8 and 9)

Sequence: HCPYCRSQVETDDLILKPGVK [P22]
oxidoreductase activity [1]: displayed oxidoreductase activity, although to a lesser extend

binding to HLA-DRB1*03:01 [2]: less affinity than P12 and P20
Sequence: HCPYCTVAMVSTRKISIAK [P3]

binding to HLA-DRB1*03:01 [2]: less affinity than P12 and P20
Sequence: HCPYCRENIMVAFKGVWTQAK [P1]

Sequence: HCPYCTRKISIAKSVFYIAAKKK [P12]
specific secretion of cytokines (IL-5 and IL-13) ([3]; culture supernatant of P12-specific CD4+ cell lines (FIG. 12, NMO-003)): specific secretion of cytokines (IL-5 and IL-13) induced | percentage of specific LCL apoptosis [4, 7]: increase in the percentage of specific LCL apoptosis | effector cells expressing the lytic marker Granzyme B [5, 8]: specific increase of effector cells expressing the lytic marker Granzyme B | frequency of effector cells (CD3+CD4+CD154+) ([6]; P12-specific CD4+ T cell lines of NMO patients -001 and -003 after multiple stimulations (FIG. 10)): high frequency of effector cells | time at which oxidoreductase activity reached a plateau [1]: 5 min | binding to HLA-DRB1*03:01 [2]: bind to HLA-DRB1*03:01 with similar affinity

Sequence: KVAMVCTRKISIAKSVFYIAAKK [short-WT epitope, reference compound]
percentage of specific LCL apoptosis [4, 7]: increase in the percentage of specific LCL apoptosis | effector cells expressing the lytic marker Granzyme B [5, 8]: specific increase of effector cells expressing the lytic marker Granzyme B | reactivation of P12-specific CD4+ T cells (CD154+) ([6]; P12-specific CD4+ T cells of NMO-001 patient (FIG. 11)): could also be reactivated

binding to HLA-DRB1*03:01 [2]: less affinity than P12 and P20
Sequence: HCPYCVETIFASSDSKRTDVK (HCPYCVFTIFASSDSKRTDVK) [P15]
oxidoreductase activity [1]: displayed oxidoreductase activity, although to a lesser extend

binding to HLA-DRB1*03:01 [2]: less affinity than P12 and P20
Sequence: HCPYCAVTVAMVCTRKISIAKK [P6]

Sequence: HCPYCEYVFSPDVEFKRRFK [P20]
specific secretion of cytokines (IL-5 and IL-13) [3, 9]: specific secretion of cytokines (IL-5 and IL-13) induced | percentage of specific LCL apoptosis [4, 10]: increase in the percentage of specific LCL apoptosis | apoptosis of loaded LCL ([4]; P20-specific CD4+ T cell line, patient NMO-003, after 14 stimulations (FIG. 6)): Apoptosis of LCL loaded with P20 was also observed | LCL apoptosis ([4]; co-culture with CD4+ T cells of patient NMO-001 after 16 stimulations with P20 (FIG. 7)): 50% | effector cells expressing the lytic marker Granzyme B [5, 11]: specific increase of effector cells expressing the lytic marker Granzyme B | frequency of effector cells (CD3+CD4+CD154+) ([6]; P20-specific CD4+ T cell lines of NMO patients -001 and -003 after multiple stimulations (FIG. 3)): high frequency of effector cells | time at which oxidoreductase activity reached a plateau [1]: 5 min | binding to HLA-DRB1*03:01 [2]: bind to HLA-DRB1*03:01 with similar affinity

binding to HLA-DRB1*03:01 [2]: less affinity than P12 and P20
Sequence: KHCPYCVFTIFASCDSKRTDVK [P18]

Sequence: AGGLYEYVFSPDVEFKRRFK [short-S-WT epitope, reference compound]
percentage of specific LCL apoptosis [4, 10]: increase in the percentage of specific LCL apoptosis | effector cells expressing the lytic marker Granzyme B [5, 11]: specific increase of effector cells expressing the lytic marker Granzyme B | reactivation of P20-specific CD4+ T cells (CD154+) ([6]; P20-specific CD4+ T cells of NMO-001 patient (FIG. 4)): could also be reactivated

Sequence: AGGLYEYVFCPDVEFKRRFK [short C-WT T-cell epitope, reference compound]
specific secretion of cytokines (IL-5 and IL-13) [3, 9]: specific secretion of cytokines (IL-5 and IL-13) induced | cross-reactivity (LCL apoptosis) ([4]; CD4+ T cells of patient NMO-001 after 16 stimulations with P20 (FIG. 7)): lower | effector cells expressing the lytic marker Granzyme B [5, 11]: specific increase of effector cells expressing the lytic marker Granzyme B

Reference: patent US20240228558A9, “PEPTIDES AND METHODS FOR THE TREATMENT OF NEUROMYELITIS OPTICA” (IMCYSE SA, priority 2021, published 2024)
